Results as given in article PMC4818757, “Small molecule inhibitors of the Dishevelled‐CXXC5 interaction are new drug candidates for bone anabolic osteoporosis therapy” (EMBO Molecular Medicine, 2016).

Assays:
TA-100 = settings: TA-100, Without S-9 mix
Description: (§1) Appendix Table S3. Bacterial reverse mutation assay with KY-02327
(§2) a Number of revertant colonies of treated plate/Number of revertant colonies of
(§3) vehicle control plate (Maron & Ames, 1983).
(§4) b Negative control. Vehicle: DMSO

[1] = tested on: ovariectomized (OVX) mice; test: OVX-induced osteoporosis mouse model; assay type: in vivo; settings: KY‐02327 20 mpk oral, PTH 0.06 mpk subcutaneous
Method: Figure 6 Effects of KY‐02327 on OVX‐induced osteoporosis model mice • A–H Vehicle or 20 mg of KY‐02327 per kg of animal body weight (mpk) was orally administered or 0.06 mpk of the N‐terminal fragment of PTH (amino acids 1‐34) was subcutaneously injected into the Sham‐operated (Sham) or ovariectomized (OVX) mice on 5 sequential days per week for 4 weeks (n = 4). After calcein injection, the prepared femoral sections of the OVX mice were examined under fluorescence microscope to visualize integrated calcein (A, green, arrows). Nuclei were counterstained with DAPI (A, blue). Scale bars, 100 μm. Osteoblast numbers (B) and calcein double‐labeled surfaces (C) were measured in the femoral sections. The mouse femurs were analyzed using micro‐CT, and BMD (D) and BV/TV (E) were calculated from the micro‐CT data. The three‐dimensional images of femoral trabecular bone were reconstructed (F), and trabecular number (G) and trabecular separation (H) were calculated. Data Information: The data are the mean ± s.d. (error bars). Significance was assessed using Kruskal–Wallis test.
This animal study was approved by the Institutional Review Board of Severance Hospital, Yonsei University College of Medicine. The mice were housed in filter‐topped shoebox cages with a computerized environmental control system (MJ LTD, Seoul, Korea). The care and treatment of experimental animals were performed in accordance with institutional guidelines. The room temperature was maintained at 26.5°C with a relative humidity of approximately 40–70%. The mice were given a standard maintenance diet from Dae Han Bio Link (Daejeon, Korea). For OVX mouse experiments, the surgeries were performed with 8‐week‐old female BL6 mice under anesthesia with avertin (2,2,2‐tribromoethanol; Worthington Biochemical, Freehold, NJ) as described previously (Zahoor et al, 2014). After removing the hair, dorsal incisions were made into the dermal layers above both sides of the ovaries using dissection scissors. The connection between the fallopian tube and the uterine horn was cut, and the ovary was removed. The incision was then sutured with 3 single catgut stitches. Sham mice were used as controls. After 4 weeks, the OVX group was divided into three groups for oral administration of vehicle (saline containing 10% Tween‐60) or 20 mg of KY‐02327 per kg of animal body weight (mpk) of KY‐02327, or for subcutaneous injection of 0.06 mpk of N‐terminal fragment of PTH (amino acids 1–34), which were administered for 5 sequential days per week for 4 weeks. The animals were sacrificed, and the organs were harvested for analysis. For the calcein double‐labeling experiment (Pall et al, 1987), calcein (10 mpk in 2% sodium hydrocarbonate, pH 7.4) was injected twice, on the last day of the 2nd and 3rd week. All the mice were randomly assigned to each groups, and the investigators were blinded to the group allocation during the treatments and experiments.
The mouse femurs were scanned using a micro‐CT system (Skyscan 1072; Skyscan, Aartselaar, Belgium). The scanned image data were reconstructed to create 3D images and analyzed using the CT‐Analyzing Program (Skyscan). For femoral trabecular bone analysis, the femurs were scanned with a voxel size of 10 μm, beginning at the end of the growth plate and extending proximally along the diaphysis, and 80 continuous slices (beginning at 0.1 mm from the most proximal aspect of the growth plate in which both condyles were no longer visible) were selected for analysis.
The femurs of OVX mice and the calvariae of 4‐day‐old mice were fixed in 4% paraformaldehyde in PBS. The bones were then decalcified in 10 mM EDTA and embedded in paraffin. Five‐micrometer tissue sections were deparaffinized in 100% xylene followed by re‐hydration with sequential 100% to 50% ethanol washes. The sections were stained with hematoxylin and eosin (H&E), and light micrographs were captured using a SMZ645 Nikon microscope (Nikon, Tokyo, Japan). […]

TA-98 = settings: TA-98, Without S-9 mix
Description: as §1, §2, §3, §4

[2] = molecular target: CYP C29 (so in the source); probably CYP2C9) (Homo sapiens, UniProt P11712); test: Cytochrome P450 inhibition assay, C29
Description: Appendix Table S4. Cytochrome P450 (CYP) inhibition assay with 10 µ M KY-

Sequence of CYP C29 (so in the source); probably CYP2C9) (P11712 whole entry): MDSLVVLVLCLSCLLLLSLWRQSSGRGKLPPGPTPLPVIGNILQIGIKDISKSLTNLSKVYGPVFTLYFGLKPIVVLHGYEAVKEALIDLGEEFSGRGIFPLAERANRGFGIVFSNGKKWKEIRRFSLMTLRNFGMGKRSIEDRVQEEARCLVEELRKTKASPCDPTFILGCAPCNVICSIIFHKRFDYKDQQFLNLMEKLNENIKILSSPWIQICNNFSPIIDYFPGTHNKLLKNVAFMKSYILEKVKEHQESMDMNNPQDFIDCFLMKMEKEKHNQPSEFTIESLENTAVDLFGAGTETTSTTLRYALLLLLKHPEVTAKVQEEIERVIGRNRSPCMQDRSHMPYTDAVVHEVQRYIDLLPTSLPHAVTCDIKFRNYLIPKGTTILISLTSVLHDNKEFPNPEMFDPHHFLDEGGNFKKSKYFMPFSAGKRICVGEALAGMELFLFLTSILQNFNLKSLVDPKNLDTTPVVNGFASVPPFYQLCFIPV

[N-]=[N+]=[N-].[Na+] [S.A, Sodium azide, reference compound]
Factor (revertant colonies treated plate / vehicle control plate) (TA-100): 5.6
Revertant colonies/plate (Mean) (TA-100; dose (g/plate): KY-02327 1000, S.A 1): 689 ± 20 colonies/plate

PTH: N‐terminal fragment of PTH (amino acids 1‐34) [reference compound]
destroyed trabecular bones (3D micro-CT images) ([1]; 4 weeks): rescued
mineral contents of the bone (BMD), femur, micro‐CT ([1]; 4 weeks): significantly increased
trabecular bone number ([1]; 4 weeks): increase
trabecular separation ([1]; 4 weeks): decrease
volume of bone (BV/TV) ([1]; 4 weeks, vs vehicle): increased
calcein double‐labeled surface ([1]; 5 days per week for 4 weeks): increased
new bone formation (calcein-labeled) in femur ([1]; 5 days per week for 4 weeks): recovered
number of osteoblasts ([1]; 5 days per week for 4 weeks): increased

O=[N+]([O-])c1ccc2c(c1)Cc1ccccc1-2 [2-NF, 2-nitrofluorene, reference compound]
Factor (revertant colonies treated plate / vehicle control plate) (TA-98): 9.4
Revertant colonies/plate (Mean) (TA-98; dose (g/plate): KY-02327 1000, 2-NF 1): 178 ± 16 colonies/plate

Nc1ccc(S(=O)(=O)Nc2ccnn2-c2ccccc2)cc1 [Sulfaphenazole, reference compound]
inhibition at 10 µM [2]: 80.5%
